Measurements from paper PMC6492551 (Carbohydrate research, 2019).
pIC50: −log10 of the molar value.

The compounds below were run against CA II (Homo sapiens, UniProt P00918) (assay: esterase assay, p-nitrophenyl acetate hydrolysis).
Type: biochemical
Compound O=C1NS(=O)(=O)c2cc(-n3cc(CO[C@@H]4O[C@H](CO)[C@@H](O)[C@H](O)[C@H]4O)nn3)ccc21 [1a, saccharin-glycoconjugate 1a] has a pIC50 of under 5.70. O=C1NS(=O)(=O)c2cc(-n3cc(CO[C@@H]4O[C@H](CO)[C@H](O)[C@H](O)[C@H]4O)nn3)ccc21 [1b, saccharin-glycoconjugate 1b] was tested, and the pIC50 was under 5.70. For O=C1NS(=O)(=O)c2cc(-n3cc(CCO[C@@H]4O[C@H](CO)[C@H](O)[C@H](O)[C@H]4O)nn3)ccc21 [1c, saccharin-glycoconjugate 1c], the pIC50 was under 5.70.
